Data: patent US20040228844A1, “Method for controlling harmful plant-parasitic nematodes” (priority 2003, published 2004)

What was measured:
Meloidogyne incognita [1] = test: Test Example 2: gall control on cucumber seedlings in nematode-infested soil; assay type: in vivo; conditions: 20 kg /1000 m^2, 32 days after transplantation, (C−S)×100/C
Method: To 3 kg of the Meloidogyne incognita-infested soil was applied each (100 mL) of the test solutions diluted at given concentrations and then the resulting soil was thoroughly mixed.
The gall control value was calculated by the following equation:
Gall control value=(C−S)×100/C
wherein C is an average gall number per plant in a non-treated group, and S is an average gall number per plant in a treated group.

Meloidogyne incognita [2] = test: Test Example 1: root-knot damage of cucumber seedlings in nematode-infested soil; conditions: 20 kg per 1000 m^2, soil mixing, 50 days after transplantation, scale 0 (no root-knots) to 5 (dead), average per 10 plants
Method: To 5 kg of nematode-infested soil (nematode density: 2255 nematodes per 20 g (investigation method: Bellman's method)) in which Meloidogyne incognita seriously grew was applied each (100 mL) of the test solutions diluted at given concentrations: and then the resulting soil was thoroughly mixed. […] (diameter: about 3 mm), 500 g of each of the soil to which each test solution was applied and mixed was placed. Cucumber seedlings (14 days after sowing, 2 plants per cup, 5 replications) were transplanted in the cup, which contained each treated soil. After transplantation, the plants were left in a glass greenhouse.
The degree of root-knot damages was evaluated according to the following criteria:
5: The plant is withered and dead due to parasitism of nematodes.
4: A number of root-knots, which range to form-large root-knots, are observed on the entire roots.
3: Root-knots are observed on the entire roots, and large root-knots being partly formed.
2: Formation of root-knots is partly observed on the root, and some of them ranging, but no large root-knot is observed.
1: A little formation of root-knots is observed.
0: No formation of root-knots is found.

Structure (SMILES): CSCC[C@H](N)C(=O)O [Component A Agent, methionine]
- Gall Control Value (Meloidogyne incognita [1]): 44
- Average Degree of Root-Knots Damages (Meloidogyne incognita [2]): 3.2
